Data published in patent US12378277B2, “SGLTS/DPP4 inhibitor and application thereof” (DONGBAO PURPLE STAR (HANGZHOU) BIOPHARMACEUTICAL CO., LTD., priority 2019, dated 2025).
Marks after values point to notes of the source that are not given here.

Assays:
Human-SGLT2 = Human-SGLT2 (Homo sapiens (Human), UniProt P31639); assay: SGLT2 glucose transport test; type: cell-based; conditions: cells stably expressing Human-SGLT2; [14C]-labeled methyl α-D-glucopyranoside uptake, 37° C., 2 hours
Method: 6) The data was calculated by GraphPad Prism 5.0 software: log(inhibitor) vs. response—Variable slope to obtain the IC50 value of the test compound. The experimental results were shown in Table 3. • Biological activity experiment 2: SGLT2 glucose transport test 1. Experimental Purpose:
The effect of the compound on the glucose transport activity of the SGLT2 transporter was detected through measuring the amount of [^14C]-labeled glucose entering the cells with high expression of Human-SGLT2.
The cells stably expressing Human-SGLT2 used in the experiment were constructed by Shanghai WuXi AppTec. The SGLT2 cells were plated on a 96-well cell culture plate (Greiner) and cultured overnight at 5% CO2 at 37° C.
2.2. SGLT2 Glucose Transport Test
1) Experimental buffer: 10 mM 4-hydroxyethylpiperazine ethanesulfonic acid (HEPES), 1.2 mM magnesium chloride (MgCl2), 4.7 mM potassium chloride (KCl), 2.2 mM calcium chloride (CaCl2)) and 120 mM sodium chloride (NaCl).
2) Termination buffer: 10 mM 4-hydroxyethylpiperazine ethanesulfonic acid (HEPES), 1.2 mM magnesium chloride (MgCl2), 4.7 mM potassium chloride (KCl), 2.2 mM calcium chloride (CaCl2), 120 mM sodium chloride (NaCl) and 1 μM LX4211.
3) The compound was diluted with 100% dimethyl sulfoxide (DMSO) with a starting concentration of 10 μM and 8 points of 5-fold serial dilution.
4) 6 μM [^14C]-labeled methyl α-D-glucopyranoside was prepared with experimental buffer.
5) The cells were treated with 49 μL of experimental buffer, 1 μL of gradient diluted compound, and 50 μL of 6 μM [^14C]isotope-labeled sugar solution at 37° C. for 2 hours.
6) The liquid in the well was aspirated and the cells were rinsed 3 times with termination buffer.
7) The cells were lysed with 50 μL of 10% sodium hydroxide solution, the cell lysate was aspirated into the scintillation tube, and 2 mL of scintillation fluid was added.
8) An isotope detector (Tricarb) was used to read.
9) The data was calculated by GraphPad Prism 5.0 software: log(inhibitor) vs. response—Variable slope to obtain the IC50 value of the test compound. The experimental results were shown in Table 3. • Biological activity experiment 3: rhDPP4 inhibitor screening experiment 1.

[1] = biological target: recombinant human dipeptidyl peptidase 4 (rhDPP4) (Homo sapiens (Human), UniProt P27487); assay: rhDPP4 inhibitor screening experiment; type: biochemical; conditions: Gly-Pro-aminoluciferin substrate, luminescence, room temperature 1 hour
Sequence of recombinant human dipeptidyl peptidase 4 (rhDPP4) (P27487 whole entry): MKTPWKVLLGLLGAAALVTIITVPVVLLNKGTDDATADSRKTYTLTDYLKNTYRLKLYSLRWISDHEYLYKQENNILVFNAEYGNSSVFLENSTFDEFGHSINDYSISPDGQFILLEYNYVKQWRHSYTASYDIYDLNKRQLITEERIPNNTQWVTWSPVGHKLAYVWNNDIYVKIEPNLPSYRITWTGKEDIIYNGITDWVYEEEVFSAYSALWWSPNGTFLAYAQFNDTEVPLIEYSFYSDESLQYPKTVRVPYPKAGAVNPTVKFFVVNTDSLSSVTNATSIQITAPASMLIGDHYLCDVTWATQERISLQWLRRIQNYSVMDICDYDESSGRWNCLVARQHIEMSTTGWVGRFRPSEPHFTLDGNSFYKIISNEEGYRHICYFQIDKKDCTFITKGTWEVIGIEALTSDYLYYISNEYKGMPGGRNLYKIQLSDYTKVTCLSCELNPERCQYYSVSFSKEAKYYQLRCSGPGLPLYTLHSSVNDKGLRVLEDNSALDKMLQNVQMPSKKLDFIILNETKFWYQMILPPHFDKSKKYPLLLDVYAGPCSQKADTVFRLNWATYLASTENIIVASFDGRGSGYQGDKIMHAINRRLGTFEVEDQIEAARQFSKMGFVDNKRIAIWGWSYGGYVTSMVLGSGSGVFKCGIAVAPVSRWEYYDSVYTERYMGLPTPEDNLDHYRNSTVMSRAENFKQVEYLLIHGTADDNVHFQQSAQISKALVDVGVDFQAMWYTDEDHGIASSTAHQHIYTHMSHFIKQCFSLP
Method: 9) The data was calculated by GraphPad Prism 5.0 software: log(inhibitor) vs. response—Variable slope to obtain the IC50 value of the test compound. The experimental results were shown in Table 3. • Biological activity experiment 3: rhDPP4 inhibitor screening experiment 1. Experimental Purpose:
The inhibitory activity of the compounds on recombinant human dipeptidyl peptidase 4 (rhDPP4) was evaluated by measuring the median inhibitory concentration (IC50) value of the compounds. In this experiment, rhDPP4 was used to catalyze a substrate to produce luciferin, and reacted with luciferase to produce light signals, wherein the substrate is the luminescent precursor glycine-proline-[…] (Gly-Pro-aminoluciferin). The intensity of the light signal is directly proportional to the enzyme activity.
1) 250 nL of gradient diluted compound (4 times dilution, 10 detection concentrations) was transferred to a 384-well plate (PerkingElmer-6007299) using a non-contact nano-upgraded acoustic pipetting system (ECHO). The concentration of dimethylsulfoxide (DMSO) concentration was 0.5% in the final reaction system. Blank control wells (containing DMSO, substrate and 10 mM of tris(hydroxymethyl)aminomethane hydrochlorid (Tris-HCl)) and positive control wells (containing DMSO, substrate and rhDPP4) were set.
2) The pre-packed frozen buffer containing luciferase was taken out and restored to room temperature, and then added with substrate to prepare a working solution with a substrate concentration of 20 μM. The rhDPP4 was prepared as a 0.2 ng/mL working solution with 10 mM Tris-HCl (pH8.0) aqueous solution.
3) 25 μL of working solution containing 20 μM substrate and 25 μL of working solution containing 0.2 ng/mL rhDPP4 were added to the 384-well plate with the compound added already. The plate was centrifuged at 1000 rpm for 30 s. The plate was sealed with aluminum foil sealing film and incubated at room temperature for 1 hour.
4) The light signal intensity was detected with a multi-function enzyme label detector EnVision. […]

Human-SGLT1 = Human-SGLT1 (Homo sapiens (Human), UniProt P13866); assay: SGLT1 glucose transport test; type: cell-based; conditions: cells stably expressing Human-SGLT1; [14C]-labeled methyl α-D-glucopyranoside uptake, 37° C., 2 hours
Sequence of Human-SGLT1 (P13866 whole entry): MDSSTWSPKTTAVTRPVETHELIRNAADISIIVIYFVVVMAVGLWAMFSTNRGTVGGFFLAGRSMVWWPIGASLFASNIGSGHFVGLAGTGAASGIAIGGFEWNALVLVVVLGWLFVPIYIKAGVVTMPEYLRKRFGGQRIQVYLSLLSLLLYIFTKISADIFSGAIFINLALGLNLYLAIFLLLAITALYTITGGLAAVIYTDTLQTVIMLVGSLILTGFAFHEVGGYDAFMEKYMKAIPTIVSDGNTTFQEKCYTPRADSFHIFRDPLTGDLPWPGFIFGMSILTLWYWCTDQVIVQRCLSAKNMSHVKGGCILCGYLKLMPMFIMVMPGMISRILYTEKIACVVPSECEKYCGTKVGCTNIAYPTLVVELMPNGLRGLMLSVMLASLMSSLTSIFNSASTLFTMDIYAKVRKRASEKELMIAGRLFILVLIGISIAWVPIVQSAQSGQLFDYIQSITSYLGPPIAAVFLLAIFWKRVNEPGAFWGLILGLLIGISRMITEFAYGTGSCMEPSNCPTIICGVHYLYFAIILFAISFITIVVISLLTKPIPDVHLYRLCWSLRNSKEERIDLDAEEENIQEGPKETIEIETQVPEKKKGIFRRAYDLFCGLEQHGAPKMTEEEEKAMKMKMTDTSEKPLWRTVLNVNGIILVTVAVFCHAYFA
Method: • Biological activity experiment 1: SGLT1 glucose transport test 1. Experimental Purpose:
The effect of the compound on the glucose transport activity of the SGLT1 transporter was detected through measuring the amount of [^14C]-labeled glucose entering the cells with high expression of Human-SGLT1.
The cells stably expressing Human-SGLT1 used in the experiment were constructed by Shanghai WuXi AppTec. The SGLT1 cells were plated on a Cytostar-T (PerkinElmer) 96-well cell culture plate, and cultured overnight at 5% CO2 at 37° C.
2.2. SGLT1 Glucose Transport Test
1) Experimental buffer: 10 mM 4-hydroxyethylpiperazine ethanesulfonic acid (HEPES), 1.2 mM magnesium chloride (MgCl2), 4.7 mM potassium chloride (KCl), 2.2 mM calcium chloride (CaCl2) and 120 mM sodium chloride (NaCl).
2) The compound was diluted with 100% dimethyl sulfoxide (DMSO) with 1 mM as the starting concentration and 8 points of 5-fold serial dilutions.
3) 3 μM [^14C]-labeled methyl α-D-glucopyranoside was prepared with experimental buffer.
4) The cells were treated with 49 μL of experimental buffer, 1 μL of the compound which was gradient diluted, and 50 μL of 3 μM [^14C] isotope-labeled sugar solution at 37° C. for 2 hours.
5) The isotope detector (Micro beta Reader) was used to read.
6) The data was calculated by GraphPad Prism 5.0 software: log(inhibitor) vs. response—Variable slope to obtain the IC50 value of the test compound. The experimental results were shown in Table 3. • Biological activity experiment 2: SGLT2 glucose transport test 1.

SD rat = assay: Rat oral glucose tolerance test (OGTT) in vivo; conditions: 10 mg/kg single gavage
Method: 1. Animal: [table] 2. Experiment Grouping: [table] Experiment Process: 1. Animal Adaptation and Preparation: The experimental animals needed to be acclimatized in the animal room for 1 week after arriving at the facility. 2. Fasting and Administration The animals were fasted for 18 h in the metabolic cage, and drugs or solvents (2 mL/kg) were given according to the above table, and then 50% glucose solution (2 g/kg, 4 mL/kg) was administrated immediately. 3. Urine and Blood Sugar Test Two hours after the animals were given sugar, they resumed eating. The time points of 0 min, 15 min, 30 min, 45 min, 60 min and 120 min were collected for blood glucose determination; urine during 0-24 h was used for urine sugar (mg/200 g) and urine volume test respectively. 4. Data Analysis: All values will be expressed as average values. Statistical analysis was evaluated using Graphpad Prism 6 one-way analysis of variance Tukey's multiple comparison test. P value of less than 0.05 was considered of statistically significant.

Sequence of Human-SGLT2 (P31639 whole entry): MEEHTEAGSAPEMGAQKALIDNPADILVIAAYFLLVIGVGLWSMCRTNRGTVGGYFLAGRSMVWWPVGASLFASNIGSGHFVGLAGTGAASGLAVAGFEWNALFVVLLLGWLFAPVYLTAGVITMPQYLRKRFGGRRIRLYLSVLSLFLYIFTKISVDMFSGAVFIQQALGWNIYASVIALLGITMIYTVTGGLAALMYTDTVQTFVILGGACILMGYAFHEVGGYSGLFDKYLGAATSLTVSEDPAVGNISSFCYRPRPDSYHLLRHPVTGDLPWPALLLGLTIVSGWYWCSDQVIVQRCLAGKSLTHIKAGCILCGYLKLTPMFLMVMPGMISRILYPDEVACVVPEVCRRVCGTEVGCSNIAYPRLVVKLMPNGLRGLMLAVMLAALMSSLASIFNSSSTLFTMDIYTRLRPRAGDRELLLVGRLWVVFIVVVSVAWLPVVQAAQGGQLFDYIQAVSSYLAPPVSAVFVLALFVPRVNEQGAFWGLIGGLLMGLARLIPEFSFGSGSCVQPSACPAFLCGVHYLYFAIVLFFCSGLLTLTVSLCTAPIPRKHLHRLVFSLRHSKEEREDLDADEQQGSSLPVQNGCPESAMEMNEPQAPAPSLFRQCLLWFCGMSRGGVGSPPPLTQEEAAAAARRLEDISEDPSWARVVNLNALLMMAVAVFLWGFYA

| SMILES | IC50 (Human-SGLT2) | IC50 [1] | IC50 (Human-SGLT1) | OGTT glucose level AUC0-2 hr (SD rat; then 50% glucose solution 2 g/kg, solvent control group 1079) | Urine sugar level (SD rat; urine during 0-24 h, solvent control group 0.4) | Urine volume (SD rat; urine during 0-24 h, solvent control group 16.8) |
| --- | --- | --- | --- | --- | --- | --- |
| CS[C@H]1O[C@@H](c2ccc(C(C)C)c(Cc3ccc(O[C@@H]4CCN([C@H]5CO[C@H](c6cc(F)ccc6F)[C@@H](N)C5)C4)cc3)c2)[C@H](O)[C@@H](O)[C@@H]1O [WXD012] | 6.14 nM | 317 nM | 11.2 nM | – | – | – |
| CCc1ccc([C@@H]2O[C@H](SC)[C@@H](O)[C@H](O)[C@H]2O)cc1Cc1ccc(O[C@@H]2CCN([C@H]3CO[C@H](c4cc(F)ccc4F)[C@@H](N)C3)C2)c(C)c1 [WXD010] | 21.2 nM | 164 nM | 144 nM | – | – | – |
| CCOc1ccc(Cc2cc([C@@H]3O[C@H](SC)[C@@H](O)[C@H](O)[C@H]3O)ccc2Cl)cc1 [Soagliflozin, Sotagliflozin] | – | – | – | 917 mmol/L/min | 2913**** mg/200 g BW | 32.2**** mL/200 g BW |

Further molecules by falling IC50 (Human-SGLT2), results first:

| IC50 (Human-SGLT2) | IC50 [1] | IC50 (Human-SGLT1) | SMILES | OGTT glucose level AUC0-2 hr (SD rat; then 50% glucose solution 2 g/kg, solvent control group 1079) | Urine sugar level (SD rat; urine during 0-24 h, solvent control group 0.4) | Urine volume (SD rat; urine during 0-24 h, solvent control group 16.8) |
| --- | --- | --- | --- | --- | --- | --- |
| 10.3 nM | – | 44.9 nM | CCc1ccc([C@@H]2O[C@H](SC)[C@@H](O)[C@H](O)[C@H]2O)cc1Cc1ccc(O[C@@H]2CCN([C@H]3CO[C@H](c4cc(F)ccc4F)[C@@H](N)C3)C2)c(C)c1 [WXD011] | – | – | – |
| 1.44 nM | 511 nM | 3.37 nM | CCc1ccc([C@@H]2O[C@H](SC)[C@@H](O)[C@H](O)[C@H]2O)cc1Cc1ccc(OC2CCN(C3CO[C@H](c4cc(F)ccc4F)[C@@H](N)C3)CC2)cc1 (some centres unmarked) [WXD007] | – | – | – |
